# Literature values as cited in EP2727592A1 (Kücükgüzel, Sükriye Güniz, priority 2012, dated 2014).
# How the values were obtained:
# [1] = in vivo
# [2] = not given; remark: listed apart in the source
smiles,measurement,setting,value
"CC(=O)Nc1ccc(O)cc1 [PAR, 4-hydroxyacetanilide]","dose leading to nausea, vomiting, stomach ache, then liver failure and acute liver necrosis",adults,more than 10 g
same,paediatric toxic dose,children,200 mg/kg
same,dose at which the fatality risk shall increase,taken in one go,over 20 g
same,eliminated without transformation,[1],5%
same,turns into N-acetyl-p-benzoquinonimine (NAPQI) with oxidation,[1],5%
same,turns into glucuronide and sulphate conjugate,[1],90%
same,time to reach the highest amount of plasma concentration,[2]; customary dose orally,90 min
same,Elimination half life,[2]; in vivo,3.3 h
same,Oral bioavailability,[2]; oral,63 - 89%
